Laboratory results reported in the supplement of paper PMC10307832.

Legend:
Test in all cases: relative viability (nuclei count vs DMSO), 5 days (fraction); higher = more cells survive
BI-D1870 + Vorinostat = compound: CC(C)CCN1c2nc(Nc3cc(F)c(O)c(F)c3)ncc2N(C)C(=O)C1C [BI-D1870] + O=C(CCCCCCC(=O)Nc1ccccc1)NO [Vorinostat] (partner 1 µM)
Summary of the method: (§1)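 Nuclei were stained with Hoechst during a one-step fixation (final 0.05% Triton X-100, 1% formaldehyde, 1 ug/ml Hoechst) carried out 5 days after dosing, then counted on 4× images. The cells, lung cancer lines in 1536-well plates, had been dosed by pin tool the day after seeding with one drug alone or a fixed anchor-drug dose plus five library-drug doses (not always all listed) in √10 steps. Relative viability is the nuclei count in treated wells divided by that in vehicle wells, and each value is the median of duplicate plates.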

BI-D1870 + Phenformin = compound: CC(C)CCN1c2nc(Nc3cc(F)c(O)c(F)c3)ncc2N(C)C(=O)C1C [BI-D1870] + N=C(N)NC(=N)NCCc1ccccc1 [Phenformin] (partner 250 µM)
Summary of the method: as §1

Zebularine + Vorinostat = compound: O=c1ncccn1[C@@H]1O[C@H](CO)[C@@H](O)[C@H]1O [Zebularine] + O=C(CCCCCCC(=O)Nc1ccccc1)NO [Vorinostat] (partner 1 µM)
Summary of the method: as §1

Zebularine + Lapatinib = compound: O=c1ncccn1[C@@H]1O[C@H](CO)[C@@H](O)[C@H]1O [Zebularine] + CS(=O)(=O)CCNCc1ccc(-c2ccc3ncnc(Nc4ccc(OCc5cccc(F)c5)c(Cl)c4)c3c2)o1 [Lapatinib] (partner 2 µM)
Summary of the method: as §1

Cell Line	relative viability (BI-D1870 + Vorinostat; first compound 0.04 µM)	relative viability (BI-D1870 + Vorinostat; first compound 0.1265 µM)	relative viability (BI-D1870 + Vorinostat; first compound 0.4 µM)	relative viability (BI-D1870 + Vorinostat; first compound 1.265 µM)	relative viability (BI-D1870 + Vorinostat; first compound 4 µM)	relative viability (BI-D1870 + Phenformin; first compound 0.04 µM)	relative viability (BI-D1870 + Phenformin; first compound 0.1265 µM)	relative viability (BI-D1870 + Phenformin; first compound 0.4 µM)	relative viability (BI-D1870 + Phenformin; first compound 1.265 µM)	relative viability (BI-D1870 + Phenformin; first compound 4 µM)	relative viability (Zebularine + Vorinostat; first compound 1 µM)	relative viability (Zebularine + Vorinostat; first compound 3.162 µM)	relative viability (Zebularine + Vorinostat; first compound 10 µM)	relative viability (Zebularine + Vorinostat; first compound 31.62 µM)	relative viability (Zebularine + Vorinostat; first compound 100 µM)	relative viability (Zebularine + Lapatinib; first compound 1 µM)	relative viability (Zebularine + Lapatinib; first compound 3.162 µM)	relative viability (Zebularine + Lapatinib; first compound 10 µM)	relative viability (Zebularine + Lapatinib; first compound 31.62 µM)	relative viability (Zebularine + Lapatinib; first compound 100 µM)
NCI-H1975	0.747	0.617	0.686	0.664	0.425	0.4	0.37	0.422	0.426	0.313	0.731	0.728	0.465	0.556	0.321	0.982	0.872	0.478	0.392	0.267
CAL-12T	1.07	0.675	0.716	0.666	0.352	0.647	0.452	0.583	0.461	0.302	1.16	0.96	0.452	0.897	0.54	0.757	0.658	–	0.701	0.633
NCI-H1623	–	–	–	–	–	0.574	0.494	0.562	0.572	0.542	–	–	–	–	–	–	–	–	–	–
HCC-44	1.14	1.07	1.16	1.14	1.14	0.315	0.211	0.186	0.256	0.232	1.15	1.14	1.09	1.19	0.553	1.07	1.07	0.566	0.951	0.454
EKVX	0.779	0.707	0.64	0.814	0.703	0.243	0.214	0.23	0.21	0.18	0.772	0.745	–	0.819	0.635	0.218	0.182	–	0.211	0.184
NCI-H1651	0.557	0.536	0.472	0.623	0.451	0.389	0.315	0.287	0.295	0.322	0.637	0.537	0.501	0.523	0.46	0.917	1.07	–	0.94	0.515
NCI-H1944	0.894	0.5	0.484	0.57	0.405	0.218	0.185	0.184	0.237	0.205	0.534	0.573	0.414	0.603	0.458	0.975	0.864	0.613	0.932	0.757
NCI-H1703	–	–	–	–	–	–	–	–	–	–	–	–	–	–	–	0.994	0.979	–	1.52	0.952
Calu-6	–	–	–	–	–	–	–	–	–	–	–	–	–	–	–	1.17	0.99	0.604	0.813	0.347
EBC-1	–	–	–	–	–	–	–	–	–	–	–	–	–	–	–	0.244	0.197	–	0.205	0.212
SW 1573	1.07	0.6	0.99	0.619	0.448	0.487	0.212	0.308	0.394	0.144	0.964	0.689	–	0.772	0.521	1.24	0.773	0.502	1.23	0.873
A-427	0.917	0.843	0.817	0.807	0.501	0.41	0.308	0.306	0.379	0.347	0.96	0.855	0.703	0.666	0.361	1.13	1.01	0.691	0.58	0.256
NCI-H2347	0.524	0.677	0.597	0.776	0.545	0.67	0.377	0.405	0.443	0.406	0.608	0.653	0.457	0.431	0.387	1.07	0.783	0.816	0.628	0.45
NCI-H1355	0.74	0.613	0.657	0.731	0.608	0.494	0.418	0.44	0.46	0.38	0.692	0.585	0.479	0.544	0.372	1.31	0.851	0.854	0.681	0.357
NCI-H358	0.834	0.61	0.519	0.386	0.229	0.405	0.289	0.343	0.326	0.218	0.837	0.696	0.327	0.358	0.223	0.48	0.401	0.44	0.467	0.303
PC-3 [JPC-3]	0.817	0.795	0.81	0.625	0.394	0.514	0.485	0.482	0.498	0.484	1.01	0.874	0.785	0.737	0.658	0.479	0.471	0.412	0.482	0.411
NCI-H2228	0.889	0.512	0.824	0.959	0.32	0.4	0.417	0.317	0.348	0.288	0.825	0.671	–	0.412	0.377	1.19	1.04	0.66	0.638	0.281
HOP-62	0.737	0.669	0.602	0.703	0.464	0.705	0.657	0.719	0.823	0.664	0.717	0.474	0.365	0.203	0.22	1.07	0.783	0.467	0.368	0.144
HARA	0.542	0.405	0.641	0.614	0.495	0.513	0.455	0.475	0.506	0.402	0.613	0.541	–	0.323	0.213	0.731	0.906	–	0.896	1.02
